In patent publication US11179348B2, “Combination comprising pterostilbene for the treatment of cancer” (FUNDACIÓN UNIVERSIDAD CATÓLICA DE VALENCIA SAN VICENTE …, priority 2015, dated 2021):
Marks after values point to notes of the source that are not given here.

Tests used:
[1] = system: PC-3 prostate adenocarcinoma; experiment: In vivo growth of PC-3 prostate cancer xenografts; design: species or system human; settings: PC-3, day 21
B16-F1 cells = experiment: Effect of Pter on B16-F1 cell growth or viability in vitro; assay type: cell-based, murine; settings: 15 μM Pter×60 min every 24 h
Method: FIG. 14. In vivo effect of Pter on tumor growth (A) and on corticosterone (B) and ACTH (C) levels in plasma of murine B16-F1 melanoma-bearing mice. Pter (30 mg/kg) was administered i.v. every 24 h for a period of 15 days, starting 3 days after tumor inoculation.
Human A2058, MeWo and MelJuso melanoma cells, and mouse AtT-20 pituitary corticotroph tumor cells were from the American Type Culture Collection (ATCC). Human HEMa-LP epidermal melanocytes were from Life Technologies (Grand Island, N.Y.). Human MDA-MB-231 (triple negative: ER−, PR−, HER2−) and MCF-7 (ER+, PR+, HER2−) breast adenocarcinoma, A549 lung adenocarcinoma (NSCLC), HepG2 hepatocellular carcinoma, LNCaP (AR+) and PC-3 (AR−) prostate adenocarcinoma, SK-OV-3 epithelial ovarian carcinoma, and HT-29 and Caco-2 colorectal carcinoma cells were from the American Type Culture Collection. Cells were grown in Dulbecco's modified Eagle's medium (DMEM) (Invitrogen, San Diego, Calif.), pH 7.4, supplemented with 10% heat-inactivated FCS (Biochrom KG, Berlin, Germany), 100 units/ml penicillin and 100 μg/ml streptomycin. […] Cell numbers were determined using a Coulter Counter (Coulter Electronic Inc., Miami, Fla.). […] Cellular viability was assessed as previously reported (Mena, S. et al. Clin Cancer Res 13, 2658-2666 (2007)), by measuring trypan blue exclusion and leakage of lactate dehydrogenase activity.

[2] = system: AsPC-1 cells isolated from tumor-bearing mice; experiment: Chemosensitization of cultured AsPC-1 cells isolated from xenografts; assay type: cell-based, human; settings: 72 h-cultured, PL 1 μM, Chemo 0.125 μM PAC.PBP and 25 μM GTB, Pter = in vivo pretreatment
Method: FIGS. 18-25. Effect of piperlongumine and I-BET762, as GSH depleting and chemosensitizing agents, in in vitro growing human melanoma, pancreatic, breast, lung, liver, prostate, ovarian, and colorectal cancer cells. Cancer cells, isolated from Pter-treated tumor-bearing mice, were cultured as indicated under Methods. Chemotherapy (0.25 μM PAC.PBP in A2058 melanoma and MDA-MB-231 breast carcinoma cells; 0.125 μM PAC.PBP and 25 μM GTB in AsPC-1 pancreatic cancer cells; 1 μM VRB and 15 μM cisPt in A459 lung carcinoma cells; 0.15 μM DXR in HepG2 hepatocellular carcinoma cells; 15 nM DCT in PC-3 prostate carcinoma cells; 0.15 μM PAC.PBP and 25 μM CarboPt in SK-OV-3 ovarian carcinoma cells; 3 μM 5-FU, 1 μM FA and 0.6 μM IRI in HT-29 colorectal carcinoma cells) was added to the cultured flasks 24 h after seeding. […]
Human A2058, MeWo and MelJuso melanoma cells, and mouse AtT-20 pituitary corticotroph tumor cells were from the American Type Culture Collection (ATCC). […] Cell numbers were determined using a Coulter Counter (Coulter Electronic Inc., Miami, Fla.). […] Cellular viability was assessed as previously reported (Mena, S. et al. Clin Cancer Res 13, 2658-2666 (2007)), by measuring trypan blue exclusion and leakage of lactate dehydrogenase activity. […]

[3] = system: AtT-20 pituitary corticotroph tumor cells; experiment: ACTH production and POMC expression in AtT-20 cells; assay type: cell-based, mouse; settings: pterostilbene 15 μM
Method: FIG. 3. Pterostilbene bioavailability in brain and the pituitary gland, and its effect on ACTH synthesis and POMC expression in AtT-20 cells. […] (B) Effect of pterostilbene on ACTH production by AtT-20 cells in a 24 h-period (measured between 24-48 h or between 48-72 h). […] After the 30 min period, culture flasks were washed out (three times with PBS) and the medium was renewed (controls received identical treatment).
Plasma levels of ACTH (Calbiotech, Inc., Spring Valley, Calif.), corticosterone (Kamiyama Biomedical Co., Seattle, Wash.), and NORA (IBL, Hamburg, Germany) were quantified by ELISA according to the instructions of the suppliers.
RT-PCR and detection of mRNA was performed as described above. For Western blotting (see also above) POMC mouse monoclonal antibody (clone 2B2) from Origen (Rockville, Md.) were used.

## COc1cc(/C=C/c2ccc(O)cc2)cc(OC)c1 [Pter, trans-3,5-dimethoxy-4′-hydroxystilbene]
[1]
  Tumor vol.: 276 ± 74* mm^3
B16-F1 cells
  cell growth or viability in vitro: did not affect
[2]
  Viable cells: 1249 ± 206 ×10^6
[3]; 30 min every 24 h, CRH 100 nM
  ACTH production by AtT-20 cells: decreases
[3]; 72 h of culture
  POMC expression and levels in AtT-20 cells: decreased
